What was measured:
[1] = system: Trypanosoma cruzi epimastigotes CL Brener strain clone B5 (CL-B5); assay: Epimastigote susceptibility assay, CL-B5 clone (β-galactosidase activity, CPRG); assay type: cell-based; details: for Epimastigotes CL-B5 Clone SI: NCTC-929 cytotoxicity / epimastigote IC50; for Epimastigotes CL-B5 Clone PNFX (nifurtimox IC50/compound IC50) / IC50: epimastigotes, CL-B5 clone; for IC50: 72 h at 28 °C, β-galactosidase readout, mean ± SEM
Description: (§1) For in vitro studies, the strains MHOM/CO/04/MG (MG), MHOM/CO/05/JEM (JEM) and CL Brener strain clone B5 (CL-B5) were used. The MG and JEM strains correspond to Group I and Haplotype Ia isolates from two Colombian patients in the acute phase, and CL-B5 is a strain stably transfected with Escherichia coli β-galactosidase gene (lacZ). Epimastigotes were grown in plastic culture flasks at 28 °C, in axenic liver-infusion tryptose (LIT) growth medium, supplemented with 10% heat inactivated (30 min at 56 °C) foetal calf serum (FCS; Sigma), […] hemin (Sigma), and 10 µg/mL gentamycin (Sigma) and harvested in the exponential phase for conducting the experiments. Cultures were continuously maintained in logarithmic growth by weekly passages.
Trypanocidal activity against CL-B5 strain was also assessed by measuring β-galactosidase activity. Briefly, log-phase epimastigotes were seeded in 96-well microplates at a density of 2.5 × 10^5 parasites/mL in a final volume of 200 μL/well and incubated within the compounds for 72 h at 28 °C. Afterwards, 50 μL of the β-galactosidase substrate chlorophenol red β-D-galactopyranoside (CPRG, Roche) in 0.9% Triton X-100 (Panreac) solution were added to each well (200 μM, pH 7.4) and the plates incubated at 37 °C for 3 h. Anti-epimastigote activity was estimated by reading absorbance at 595 nm. Each concentration was assayed by triplicate, in three independent experiments. […] In all spectrophotometric assays, anti-epimastigote activity percentages were calculated as (OD control wells − OD experimental wells) ×100/OD control wells.
(§2) Furthermore the Selectivity Index (SI = mammalian cell LC50/epimastigote IC50) for each compound was calculated to compare the antiprotozoal activity with its respective mammalian cell cytotoxicity.

[2] = system: Trypanosoma cruzi epimastigotes strain JEM (MHOM/CO/05/JEM); assay: Epimastigote susceptibility assay, JEM strain (Trypan Blue and XTT); assay type: cell-based; details: for JEM Strain SI (Selectivity Index: LC50-macrophages/IC50-epimastigotes): JEM strain epimastigotes vs J774.2 macrophages; for JEM Strain PNFX (potency relative to NFX = IC50-NFX/IC50-compound; also called NI) / IC50: epimastigotes, JEM strain; for IC50: 72 h at 28 °C, 0.1-70.0 µM, mean ± SEM
Description: as §1
(§3) Three different strains of T. cruzi were used for the primary screening on epimastigote forms. For strains MG and JEM, the screening assay was performed with approximately 1 × 10^5 epimastigotes in logaritmic growth phase in 200 μL of supplemented LIT medium per well in 96-well flat bottoned plates (Costar, Corning, Cornig, NY, USA). […] The plates were incubated for 72 h at 28 °C and all experimental conditions were evaluated in triplicate in three independent experiments. The epimastigote growth inhibition was microscopically determined by the Trypan Blue dye exclusion assay and XTT (2,3-bis-(2-methoxy-4-nitro-5-sulfophenyl)-5-[(phenylamino)carbonyl]-2H-tetrazolium hydroxide). Regarding the first method, an aliquot from every culture was suspended in 0.4% trypan blue solution for 5 min and cell viability was determined under microscope by counting live parasites in each condition in a Neubauer chamber. Anti-epimastigote activity percentage was calculated as (Parasite counts in control wells-Parasite counts in experimental wells) × 100/Parasite counts in control wells. Trypanocidal activity over both strains was also measured adding 50 μL of XTT solution per well to obtain a final concentration of 0.3 mg/mL. The plate was re-incubated 24 h in the dark at 37 °C and orange formazan solution formed, was spectrophotometrically quantified at 450 nm with a 630 nm reference filter, using an Ear400FT ELISA reader.
as §2

[3] = system: J774.2 macrophages; assay: in vitro; details: for CC50: read-out: Macrophages LC50, J774.2 macrophages, 72 h, mean ± SEM
Description: (§4) The mouse cell lines J774.2 macrophages and NCTC clone 929 fibroblasts were used and cultured in plastic culture flasks. J774.2 and NCTC-929 cells were grown using DMEM and BME without phenol-red, respectively. Both media were supplemented with 10% heat inactivated fetal calf serum, 2 mM glutamine, 100 U/mL penicillin and 100 μg/mL streptomycin. Cell cultures were maintained at 37 °C in a humidified atmosphere containing 5% CO2 and subpassaged once a week. Cells in the pre-confluence phase were harvested with an EDTA-trypsin solution for the experiments.
(§5) Unspecific cytotoxicity was evaluated over phagocytic macrophages J774.2 cell line. To study cytotoxicity on J774.2 cells, 200 μL of a suspension of 2 × 10^5 macrophages/mL were added to 96 well flat-bottom microplates (Sigma). Cells were allowed to attach for 24 h at 37 °C and then exposed to the compounds for 72 h at the same concentrations as used for drug screening. […] Each concentration was assayed by triplicate, in independent experiments. Cytotoxicity was assessed by the Trypan Blue and XTT techniques and LC50 was calculated as described above.

[4] = system: Trypanosoma cruzi amastigotes CL-B5 clone; assay: Amastigote susceptibility assay, CL-B5 clone in NCTC-929 fibroblasts (CPRG); assay type: cell-based; details: for Amastigotes CL-B5 Clone SI: NCTC-929 cytotoxicity / amastigote IC50; for IC50: intracellular amastigotes in NCTC-929 fibroblasts, 7 days, mean ± SEM
Description: For the anti-amastigote assays, axenic cultures of epimastigotes reaching their stationary phase of growth (14 day-old cultures) were used to infect non-confluent monolayers of NCTC-929 fibroblasts to obtain tissue culture derived trypomastigotes (TCT). After 24 h at 33 °C in a humidified 5% CO2 atmosphere, the infected cultures were washed with phosphate buffer saline (PBS) to removed non-penetrated epimastigotes. TCT were harvested from the supernatant of the cultures after one week of incubation in these conditions of temperature and humidity.
For this assay, 120 μL of BME containing 10,000 NCTC-929 fibroblasts/well were seeded in 48-well plates (Costar) and after their attachment, infected with TCT obtained as above in a 1:6 cell-parasite ratio. The plates were incubated at 33 °C and 5% CO2 overnight and after the infection, experimental wells were washed with PBS to eliminate non-penetrated TCT. […] Then, 50 μL of a CPRG solution in 3% Triton X-100 (pH 7.4) were added to each well in a final concentration of 400 μM and the plates incubated 3 h at 37 °C. Finally, anti-amastigote activity was estimated by reading absorbance at 595 nm in a plate reader (Infinite 200, Tecan) and calculated as in Fonseca-Berzal et al.. IC50 and NI indexes were calculated as above.

[5] = system: NCTC-929 fibroblasts; assay: in vitro; assay type: cell-based; details: NCTC-929 fibroblasts, 48 h, resazurin, mean ± SEM; read-out: Cytotoxicity NCTC-929 LC50
Description: (§6) NCTC-929 cells were placed in triplicate in 96-well microtitre plates at 15 × 10^3 cells per well in 100 µL of MEM supplemented with FBS and antibiotics. The cells were grown overnight at 37 °C in 5% CO2. Thereafter, the medium was removed and the compounds were added in 200 µL of medium and plates were incubated 48 h at 37 °C in 5% CO2. After incubation, 20 µL of 2 mM resazurin (Sigma) solution was added to each well. The plates were incubated for 3 h and metabolic activity was measured by fluorimetric readings taken in a plate fluorometer (Infinite 200, TECAN, Mannedorf, Switzerland) at λexcitation 535 nm and λemission 590 nm, according to the Alamar blue® Assay.

[6] = system: Trypanosoma cruzi epimastigotes strain MG (MHOM/CO/04/MG); assay: Epimastigote susceptibility assay, MG strain (Trypan Blue and XTT); assay type: cell-based; details: for MG Strain SI (Selectivity Index: LC50-macrophages/IC50-epimastigotes): MG strain epimastigotes vs J774.2 macrophages; for MG Strain PNFX (potency relative to NFX = IC50-NFX/IC50-compound; also called NI) / IC50: epimastigotes, MG strain; for IC50: 72 h at 28 °C, 0.1-70.0 µM, mean ± SEM
Description: as §1, §3, §2

[7] = in vitro; details: mouse
Description: as §4, §5

[8] = in vitro; assay type: cell-based; details: mouse
Description: as §6

[9] = Trypanosoma cruzi, NCTC929, 168 h

Molecule	Epimastigotes CL-B5 Clone SI [1]	Epimastigotes CL-B5 Clone PNFX (nifurtimox IC50/compound IC50) [1]	IC50 [1] [µM]	JEM Strain SI (Selectivity Index: LC50-macrophages/IC50-epimastigotes) [2]	JEM Strain PNFX (potency relative to NFX = IC50-NFX/IC50-compound; also called NI) [2]	IC50 [2] [µM]	CC50 [3] [µM]	Amastigotes CL-B5 Clone SI [4]	Amastigotes CL-B5 Clone PNFX (nifurtimox IC50/compound IC50) [4]	IC50 [4] [µM]	CC50 [5] [µM]	MG Strain SI (Selectivity Index: LC50-macrophages/IC50-epimastigotes) [6]	MG Strain PNFX (potency relative to NFX = IC50-NFX/IC50-compound; also called NI) [6]	IC50 [6] [µM]	IC50 ([1]; Trypanosoma cruzi) [µM]	IC50 ([2]; Trypanosoma cruzi, 72 h) [µM]	CC50 at 72 h [7] [µM]	IC50 [4, 9] [µM]	CC50 at 48 h [8] [µM]	IC50 ([6]; Trypanosoma cruzi, 72 h) [µM]	other results
2-(tert-Butoxycarbonyl)-dodecan-1,2-diamine [Compound 14]	11.8	4.2	2.5 ± 0.03	3.3	1.0	14.5 ± 0.05	47.1 ± 0.35	9.9	0.2	3 ± 0.21	29.6 ± 0.01	4.4	2.0	10.8							
2-tert-Butoxycarbonyl-hexadecan-1,2-diamine [Compound 15]	10.6	4.3	2.4 ± 0.01	2.4	0.7	20.4 ± 0.3	48.1 ± 0.15	9.8	0.2	2.6 ± 0.23	25.6 ± 0.06	4.0	1.8	12 ± 2.15							
CCCCCCCCCCCCCCC(N)CO (stereo not drawn) [Compound 2, 2-Aminohexadecanol]	7.2	3.0		26	4.9			14.0	0.3			3.3	0.9		3.5 ± 0.01	3 ± 1.5	77.8 ± 0.35	1.8 ± 0.12	25.2 ± 0.12	23.7 ± 3.15	
CCCCCCCCCCCCCCC(CO)NCC (stereo not drawn) [Compound 5, 2-(Ethylamino)hexadecanol]	9.8	3.1		2.3	0.8			54	1.0			2.0	1.0		3.3 ± 0.1	19.3 ± 1.35	43.4 ± 0.5	0.6 ± 0.25	32.4 ± 0.02	21.6 ± 2.95	
CCCCCCCCCCCCCCC(CO)NCCCC (stereo not drawn) [Compound 6, 2-(Butylamino)hexadecanol]	22.7	2.5			5.3			47.8	0.3				6.6		4.2 ± 0.52	2.8 ± 0.75	63.9 ± 3.5	2 ± 0.27	95.6 ± 1.19	3.2 ± 0.2	times less toxic than NFX ([3]; macrophages LC50 relative to NFX): 1.3
